Test results: patent US20100056600A1, “11BETA-HSD1 ACTIVE COMPOUNDS” (priority 2007, published 2010)

Molecular target: T1, h-11βHSD1 (Homo sapiens, UniProt P28845)
T1 construct: made in house
Test: 11βHSD1 enzyme assay (SPA, 3H-cortisone to 3H-cortisol)
Assay type: biochemical
Settings: extract of yeast transformed with h-11βHSD1; 120 nM 3H-cortisone, 4 mM β-NADPH, 60 min at 30° C.
Description: ^3H-cortisone and anti-rabbit Ig coated scintillation proximity assay (SPA) beads were purchased from Amersham Pharmacia Biotech, β-NADPH was from Sigma and rabbit anti-cortisol antibodies were from Fitzgerald. An extract of yeast transformed with h-11βHSD1 (Hutt et al., FEBS Lett, 441, 25 (1998)) was used as the source of enzyme. The test compounds were dissolved in DMSO (10 mM). All dilutions were performed in a buffer containing 50 mM TRIS-HCl (Sigma Chemical Co), 4 mM EDTA (Sigma Chemical Co), 0.1% BSA (Sigma Chemical Co), 0.01% Tween-20 (Sigma Chemical Co) and 0.005% bacitracin (Novo Nordisk A/S), pH=7.4. Optiplate 96 wells plates were supplied by Packard. The amount of ^3H-cortisol bound to the SPA beads was measured on TopCount NXT, Packard.
h-11βHSD1, 120 nM ^3H-cortisone, 4 mM β-NADPH, antibody (1:200), serial dilutions of test compound and SPA particles (2 mg/well) were added to the wells. The reaction was initiated by mixing the different components and was allowed to proceed under shaking for 60 min at 30° C. The reaction was stopped be the addition of 10 fold excess of a stopping buffer containing 500 μM carbenoxolone and 1 μM cortisone. Data was analysed using GraphPad Prism software.

T1 sequence (P28845 whole entry): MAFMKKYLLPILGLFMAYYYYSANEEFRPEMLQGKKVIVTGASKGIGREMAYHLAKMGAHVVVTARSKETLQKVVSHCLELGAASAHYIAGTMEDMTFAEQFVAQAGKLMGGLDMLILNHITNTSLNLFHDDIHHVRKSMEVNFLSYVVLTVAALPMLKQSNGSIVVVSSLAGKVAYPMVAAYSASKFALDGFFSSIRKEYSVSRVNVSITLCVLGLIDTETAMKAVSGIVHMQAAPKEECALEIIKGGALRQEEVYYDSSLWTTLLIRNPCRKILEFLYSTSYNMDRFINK

Structure (SMILES)	IC50 [nM]
O=C(c1ccc2c(c1)-c1ccccc1C2)N1C2CCC1CC(O)C2 (single isomer, unassigned) [Example 2, (9H-Fluoren-3-yl)-(trans 3-hydroxy-8-aza-bicyclo[3.2.1]oct-8-yl)-methanone]	246
Cn1c2ccccc2c2cc(C(=O)N3CC4CC(O)CC3C4)ccc21 (centres unmarked) [Example 7, (3-Hydroxy-6-aza-bicyclo[3.2.1]oct-6-yl)-(9-methyl-9H-carbazol-3-yl)-methanone]	360
O=C(c1ccc2[nH]c3ccccc3c2c1)N1C2CCC1CC(O)C2 (centres unmarked) [Example 4, (9H-Carbazol-3-yl)-(3-hydroxy-8-aza-bicyclo[3.2.1]oct-8-yl)-methanone]	30
O=C(c1ccc2c(c1)-c1ccccc1C2)N1C2CCC1CC(O)C2 (single isomer, unassigned) [Example 1, (9H-Fluoren-3-yl)-(cis 3-hydroxy-8-aza-bicyclo[3.2.1]oct-8-yl)-methanone]	8
Cn1c2ccccc2c2cc(C(=O)N3CC4CC3CC4O)ccc21 (centres unmarked) [Example 5, (5-Hydroxy-2-aza-bicyclo[2.2.1]hept-2-yl)-(9-methyl-9H-carbazol-3-yl)-methanone]	64
Cn1c2ccccc2c2cc(C(=O)N3C4CCC3CC(O)C4)ccc21 (centres unmarked) [Example 3, (3-Hydroxy-8-aza-bicyclo[3.2.1]oct-8-yl)-(9-methyl-9H-carbazol-3-yl)-methanone]	6

More lines, now with the values ahead:

IC50 [nM]	Structure (SMILES)
1030	O=C(c1ccc2[nH]c3ccccc3c2c1)N1CC2CC(O)C1C2 (centres unmarked) [Example 10, (9H-Carbazol-3-yl)-(6-hydroxy-2-aza-bicyclo[2.2.1]hept-2-yl)-methanone]
29	O=C(NC1C2CC3CC1CC(O)(C3)C2)c1ccc2[nH]c3ccccc3c2c1 (centres unmarked) [Example 11, 9H-Carbazole-3-carboxylic acid (5-hydroxy-adamantan-2-yl)-amide]
41	CN(C(=O)c1ccc2c(c1)c1ccccc1n2C)C1C2CC3CC1CC(O)(C3)C2 (centres unmarked) [Example 12, 9-Methyl-9H-carbazole-3-carboxylic acid (5-hydroxy-adamantan-2-yl)-methyl-amide]
76	CN(C(=O)c1ccc2[nH]c3ccccc3c2c1)C1C2CC3CC1CC(O)(C3)C2 (centres unmarked) [Example 13, 9H-Carbazole-3-carboxylic acid (5-hydroxy-adamantan-2-yl)-methyl-amide]
274	Cn1c2ccccc2c2cc(C(=O)N3CC4CC(O)C3C4)ccc21 (centres unmarked) [Example 9, (6-Hydroxy-2-aza-bicyclo[2.2.1]hept-2-yl)-(9-methyl-9H-carbazol-3-yl)-methanone]
